Test results taken from patent US20140081017A1, “Histone Deacetylase Inhibitors for Enhancing Activity of Antifungal Agents” (METHYLGENE INC., priority 2012, published 2014).
In brackets after ≈: the same amount, converted by molar mass. Read-outs that look alike come from different tables or passages of the source.

Legend:
C. glabrata = test: Checkerboard FIC assay in combination with fluconazole (MIC alone and in combination, FICI); type: cell-based, Candida glabrata; details: for FICI of combination resulting in fluconazole MIC of: 2 ug/mL / FICI of combination resulting in fluconazole MIC of: 4 ug/mL / FICI of combination resulting in fluconazole MIC of: 8 ug/mL: FICI calculated using a fluconazole MIC of 16 μg/mL; for FICI of combination resulting in fluconazole MIC of: 2 ug/mL (value in parenthesis) / FICI of combination resulting in fluconazole MIC of: 4 ug/mL (value in parenthesis) / FICI of combination resulting in fluconazole MIC of: 8 ug/mL (value in parenthesis): FICI using a fluconazole MIC of 128 μg/mL; for MIC: Nakaseomyces glabratus; for Multiple of compound MIC to synergize fluconazole MIC to 2 ug/mL / Multiple of compound MIC to synergize fluconazole MIC to 4 ug/mL / Multiple of compound MIC to synergize fluconazole MIC to 8 ug/mL: concentration in combination as multiple of the compound's MIC alone; for Multiple of compound MIC to synergize fluconazole MIC to 2 ug/mL: fluconazole MIC 2 ug/mL; for Multiple of compound MIC to synergize fluconazole MIC to 4 ug/mL: fluconazole MIC 4 ug/mL; for Multiple of compound MIC to synergize fluconazole MIC to 8 ug/mL: fluconazole MIC 8 ug/mL; for Concentration of Methylgene compound to synergize fluconazole MIC to 2 ug/mL / Concentration of Methylgene compound to synergize fluconazole MIC to 4 ug/mL / Concentration of Methylgene compound to synergize fluconazole MIC to 8 ug/mL: in combination with fluconazole; for Concentration of Methylgene compound to synergize fluconazole MIC to 2 ug/mL: fluconazole MIC lowered to 2 ug/mL; for Concentration of Methylgene compound to synergize fluconazole MIC to 4 ug/mL: fluconazole MIC lowered to 4 ug/mL; for Concentration of Methylgene compound to synergize fluconazole MIC to 8 ug/mL: fluconazole MIC lowered to 8 ug/mL
In short: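 C. glabrata was tested by CLSI broth microdilution checkerboard, crossing 2-fold dilutions of compound with 2-fold dilutions of fluconazole. The medium was RPMI with 0.165 M MOPS at pH 7.0, inoculated from a 0.5 McFarland suspension diluted 1:100, then incubated about 48 h at 35 °C. Single-agent MICs gave the FIC and FICI values.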

Candida glabrata = test: Minimal Inhibitory Concentration (MIC) assay, broth microdilution per CLSI; type: cell-based; details: Nakaseomyces glabratus, read-out: Minimum Inhibitory Concentrations against Yeast Isolates, Candida glabrata;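 also: two read times 24 hr and 48 hr of incubation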
In short: (§1)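 Steps: overnight yeast growth on Sabouraud dextrose agar at 35° C; 0.5 McFarland saline suspension diluted 1:100 in RPMI (0.165 M MOPS, pH 7.0); inoculation into twofold compound dilutions; incubation 24-48 hr at 35° C; MIC scored as lowest concentration without visible growth.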

Candida albicans = test: as above; type: cell-based; details: Candida albicans, read-out: Minimum Inhibitory Concentrations against Yeast Isolates, Candida albicans;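 also: two read times 24 hr and 48 hr of incubation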
In short: as §1

Candida parapsilosis = test: as above; type: cell-based; details: Lodderomyces parapsilosis, read-out: Minimum Inhibitory Concentrations against Yeast Isolates, Candida parapsilosis;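 also: two read times 24 hr and 48 hr of incubation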
In short: as §1

[1] = MIC of the example compound alone against C. glabrata in the checkerboard assay, approximately 48 hr, read-out: Methylgene MIC
[2] = test compound alone, C. glabrata, approx. 48 hr at 35° C., read-out: Compound MIC
[3] = 24 hr reading (first value of cell 24 hr/48 hr)
[4] = 48 hr reading (second value of cell 24 hr/48 hr)

FICI of combination resulting in fluconazole MIC of: 2 ug/mL (C. glabrata; C. glabrata)	FICI of combination resulting in fluconazole MIC of: 4 ug/mL (C. glabrata; C. glabrata)	FICI of combination resulting in fluconazole MIC of: 8 ug/mL (C. glabrata; C. glabrata)	FICI of combination resulting in fluconazole MIC of: 2 ug/mL (value in parenthesis) (C. glabrata; C. glabrata)	FICI of combination resulting in fluconazole MIC of: 4 ug/mL (value in parenthesis) (C. glabrata; C. glabrata)	FICI of combination resulting in fluconazole MIC of: 8 ug/mL (value in parenthesis) (C. glabrata; C. glabrata)	MIC (C. glabrata; [1]) [µg/mL]	MIC (C. glabrata; [2]) [µg/mL]	Multiple of compound MIC to synergize fluconazole MIC to 2 ug/mL (C. glabrata)	Multiple of compound MIC to synergize fluconazole MIC to 4 ug/mL (C. glabrata)	Multiple of compound MIC to synergize fluconazole MIC to 8 ug/mL (C. glabrata)	Concentration of Methylgene compound to synergize fluconazole MIC to 2 ug/mL (C. glabrata; C. glabrata) [µg/mL]	Concentration of Methylgene compound to synergize fluconazole MIC to 4 ug/mL (C. glabrata; C. glabrata) [µg/mL]	Concentration of Methylgene compound to synergize fluconazole MIC to 8 ug/mL (C. glabrata; C. glabrata) [µg/mL]	MIC (Candida glabrata; [3]) [µg/mL]	MIC (Candida glabrata; [4]) [µg/mL]	MIC (Candida albicans; [3]) [µg/mL]	MIC (Candida albicans; [4]) [µg/mL]	MIC (Candida parapsilosis; [3]) [µg/mL]	MIC (Candida parapsilosis; [4]) [µg/mL]	SMILES
0.313	0.250	0.313	0.266	0.156	0.125	> 16	> 16	–	–	–	8	4	2	16 (≈ 27.9 µM)	64 (≈ 112 µM)	> 64	> 64	> 64	> 64	O=C(Cc1ccc(CCCCc2ccc(C(=O)N3CCOCCOCCOCCOCCOCC3)cc2)cc1)NO [Example 24, 2-(4-(4-(4-(1,4,7,10,13-pentaoxa-16-azacyclooctadecane-16-carbonyl)phenyl)butyl)phenyl)-N-hydroxyacetamide]
0.375	0.375	0.563	0.266	0.156	0.125	16	16	(¼x)	(⅛x)	( 1/16x)	4	2	1	> 8	> 8	> 8	> 8	> 8	> 8	CC(=O)Nc1ccc(CCCCc2ccc(CC(=O)NO)cc2)cc1 [Example 39, 2-(4-(4-(4-acetamidophenyl)butyl)phenyl)-N-hydroxyacetamide]
0.375	0.375	0.625	0.266	0.156	0.188	8	8	(¼x)	(⅛x)	(⅛x)	2	1	1	> 64	> 64	> 64	> 64	> 64	> 64	CN1CCC(C(=O)Nc2ccc(CCCCc3ccc(CC(=O)NO)cc3)cc2)CC1.Cl [Example 34, N-(4-(4-(4-(2-(hydroxyamino)-2-oxoethyl)phenyl)butyl)phenyl)-1-methylpiperidine-4-carboxamide hydrochloride]

Continued, compound first:

SMILES	FICI of combination resulting in fluconazole MIC of: 2 ug/mL (C. glabrata; C. glabrata)	FICI of combination resulting in fluconazole MIC of: 4 ug/mL (C. glabrata; C. glabrata)	FICI of combination resulting in fluconazole MIC of: 8 ug/mL (C. glabrata; C. glabrata)	FICI of combination resulting in fluconazole MIC of: 2 ug/mL (value in parenthesis) (C. glabrata; C. glabrata)	FICI of combination resulting in fluconazole MIC of: 4 ug/mL (value in parenthesis) (C. glabrata; C. glabrata)	FICI of combination resulting in fluconazole MIC of: 8 ug/mL (value in parenthesis) (C. glabrata; C. glabrata)	MIC (C. glabrata; [1]) [µg/mL]	MIC (C. glabrata; [2]) [µg/mL]	Multiple of compound MIC to synergize fluconazole MIC to 2 ug/mL (C. glabrata)	Multiple of compound MIC to synergize fluconazole MIC to 4 ug/mL (C. glabrata)	Multiple of compound MIC to synergize fluconazole MIC to 8 ug/mL (C. glabrata)	Concentration of Methylgene compound to synergize fluconazole MIC to 2 ug/mL (C. glabrata; C. glabrata) [µg/mL]	Concentration of Methylgene compound to synergize fluconazole MIC to 4 ug/mL (C. glabrata; C. glabrata) [µg/mL]	Concentration of Methylgene compound to synergize fluconazole MIC to 8 ug/mL (C. glabrata; C. glabrata) [µg/mL]	MIC (Candida glabrata; [3]) [µg/mL]	MIC (Candida glabrata; [4]) [µg/mL]	MIC (Candida albicans; [3]) [µg/mL]	MIC (Candida albicans; [4]) [µg/mL]	MIC (Candida parapsilosis; [3]) [µg/mL]	MIC (Candida parapsilosis; [4]) [µg/mL]
Nc1ccccc1CCCCc1ccc(CC(=O)NO)cc1 [Example 33, 2-(4-(4-(2-aminophenyl)butyl)phenyl)-N-hydroxyacetamide]	0.313	0.375	0.500	0.266	0.281	0.313	8	8	(¼x)	(¼x)	(¼x)	2	2	2	4 (≈ 13.4 µM)	8 (≈ 26.8 µM)	8 (≈ 26.8 µM)	16 (≈ 53.6 µM)	8 (≈ 26.8 µM)	16 (≈ 53.6 µM)
COCCOCCOCCOCCC(=O)Nc1ccc(CCCCc2ccc(CC(=O)NO)cc2)cc1 [Example 37, N-(4-(4-(4-(2-(hydroxyamino)-2-oxoethyl)phenyl)butyl)phenyl)-2,5,8,11-tetraoxatetradecan-14-amide]	0.375	0.500	0.625	0.266	0.281	0.188	4	4	(¼x)	(¼x)	(⅛x)	1	1	0.5	64 (≈ 124 µM)	> 64	> 64	> 64	> 64	> 64
CN1CCN(CCNC(=O)Nc2cccc(CCCCc3ccc(CC(=O)NO)cc3)c2)CC1 [Example 49, N-hydroxy-2-(4-(4-(3-(3-(2-(4-methylpiperazin-1-yl)ethyl)ureido)phenyl)butyl)phenyl)acetamide]	0.188	0.250	0.313	0.141	0.156	0.125	> 16	> 16	–	–	–	4	4	2	16 (≈ 34.2 µM)	> 64	> 64	> 64	> 64	> 64
O=C(Cc1ccc(C(F)CCCc2ccccc2)cc1)NO (stereo not shown) [Example 61, 2-(4-(1-fluoro-4-phenylbutyl)phenyl)-N-hydroxyacetamide]	0.313	0.375	0.375	0.266	0.281	0.188	4	4	(¼x)	(¼x)	(⅛x)	1	1	0.5	2 (≈ 6.64 µM)	4 (≈ 13.3 µM)	4 (≈ 13.3 µM)	8 (≈ 26.5 µM)	8 (≈ 26.5 µM)	16 (≈ 53.1 µM)
O=C(Cc1ccc(CCCC(F)c2ccccc2)cc1)NO (stereo not shown) [Example 26, 2-(4-(4-fluoro-4-phenylbutyl)phenyl)-N-hydroxyacetamide]	0.313	0.250	0.313	0.266	0.156	0.125	8	8	(¼x)	(⅛x)	( 1/16x)	2	1	0.5	2 (≈ 6.64 µM)	8 (≈ 26.5 µM)	4 (≈ 13.3 µM)	8 (≈ 26.5 µM)	4 (≈ 13.3 µM)	8 (≈ 26.5 µM)
